Results reported in patent US7063946B2, “Methods, reagents, kits and apparatus for protein function analysis” (Meso Scale Technologies, LLC., priority 2001, dated 2006).

Experiments:
Fgfr4 = target: T1, Fgfr4 (Mus musculus, UniProt Q03142); test: Kinase inhibitor profiling, pEY phosphorylation; type: biochemical
T1 construct: specificity data for proteins generated from a library of eighteen full-length clones; biotin on random lysines (biotin-Lys-tRNA); host or cells: rabbit reticulocyte lysate, coupled transcription/translation (TnT, Promega)
Experimental: (§1) Proteins were produced in an in vitro transcription and translation reaction. […] The unbound components of the reaction containing endogenous kinases were removed by three washes with TT-buffer (25 mM Tris-HCl buffer pH 7.4 and 0.004% Triton), two five minutes washings with high-salt wash buffer (25 mM Tris-HCl buffer pH 7.4, 0.004% Triton, 1M NaCl and 5 mM DTT) and 3 more washes with TT-buffer. To these immobilized and purified proteins a tyrosine kinase substrate, 5 nM pEY (poly Glu-Tyr, Sigma, MO), was added in a 50 μl reaction solution containing 5 mM MgCl2, 5 mM MnCl2, 100 μM ATP, 25 mM Tris-HCl buffer pH 7.4, 0.05 mM Na3VO4, 0.004% TritonX-100, 2 mM DTT and EDTA-free protease inhibitor (Roche Molecular Biochemicals). This mixture was incubated with shaking at room temperature overnight to allow phosphorylation of the pEY substrate by the immobilized kinases. Following this incubation, 45 μl of this mixture was transferred to a streptavidin or avidin-coated NPT IPR plate coated with biotinylated anti-phosphotyrosine antibody (PY20, Zymed labs, CA) followed by incubation for 30 minutes at room temperature to allow the binding of the phosphorylated pEY substrate to the PY20 coated NPT plate. Following this binding step, 50 ng Sulfo-TAG labeled anti-phosphotyrosine in buffer containing 25 mM Tris-HCl buffer pH 7.4, 5 mM MgCl2, 0.05 mM Na3VO4, 0.004% TritonX-100, 2 mM DTT and 0.05% IgG was added followed by incubation at room temperature for 30 mm. The unbound reagents were removed by one time washing with water, and the TAG label was detected in presence of 150 μl IPR assay buffer (0.4 mM Gly-Gly buffer, pH 7.8, 1 mM EDTA, 0.1 M TPA). The ECL signals were measured using an imaging plate reader.
(§2) Proteins were produced using 100 ng of plasmid DNA Mock (Luciferase, Promega) or tyrosine kinases (Fert2 IMAGE ID # 4485050, FGFR1 IMAGE ID # 4037899, Fgfr2 IMAGE ID # 2654352, Src IMAGE ID # 3156400, BMX IMAGE ID # 3919253, LCK IMAGE ID # 4191610, Epha7 IMAGE ID # 3991628, Ephb4 IMAGE ID # 4013934, Tek IMAGE ID # 3482498, HCK IMAGE ID # 4778819, BTK IMAGE ID # 4478463, CSK IMAGE ID # 4398416, SYK IMAGE ID # 3870426, FGR IMAGE ID # 4419973, PTK2B IMAGE ID # 4339456, FRK(IMAGE ID # 4515877, Kit IMAGE ID # 2644960, Fgfr-4 IMAGE ID # 4239139, NTRK3 IMAGE ID # 4181574, Kdr IMAGE ID # 4238984, Incyte Genomics, CA) and immobilized on SA or avidin coated NPT-IPR plates as described in previous examples. The unbound components of the translation reaction (including any endogenous kinases) were removed by 3 washes with TT-buffer (25 mM Tris-HCl buffer pH 7.4 and 0.004% Triton), two five minutes washes with high-salt wash buffer (25 mM Tris-HCl buffer pH 7.4, 0.004% Triton, 1M NaCl and 5 mM DTT) and 3 washes with TT-buffer. […] The mixture was incubated at room temperature for 10 mm before starting the kinase reaction by adding 25 μl of 200 μM ATP in buffer A. This mixture was incubated with intermittent shaking at room temperature for 2 hours to overnight to allow (a) phosphorylation of the pEY substrate and (b) autophosphorylation of the immobilized kinases. Autophosphorylation and phosphorylation of the pEY was measured as described in Examples 7 and 8.
(§3) The ECL signal in control wells produced by tyrosine kinases was compared to the wells containing inhibitor compounds. The signal produced from Mock was negligible.

FGFR2 = target: T2, FGFR2 (Mus musculus, UniProt P21803); test: Kinase inhibitor profiling, pEY phosphorylation; type: biochemical
T2 construct: specificity data for proteins generated from a library of eighteen full-length clones; host or cells: rabbit reticulocyte lysate, TnT coupled in vitro transcription/translation (cell-free)
Experimental: as §1, §2, §3

FGFR1 = target: T3, FGFR1 (Homo sapiens, UniProt P11362); test: Kinase inhibitor profiling, pEY phosphorylation; type: biochemical
T3 construct: specificity data for proteins generated from a library of eighteen full-length clones; host or cells: rabbit reticulocyte lysate, TnT coupled transcription/translation
Experimental: as §1, §2, §3

[1] = test system: tyrosine kinases reported to be the target of each inhibitor; settings: read-out: reported IC50 concentration (1× concentration); for the kinase reported to be the target of the inhibitor; cited from earlier work

T2 sequence (P21803 22-821): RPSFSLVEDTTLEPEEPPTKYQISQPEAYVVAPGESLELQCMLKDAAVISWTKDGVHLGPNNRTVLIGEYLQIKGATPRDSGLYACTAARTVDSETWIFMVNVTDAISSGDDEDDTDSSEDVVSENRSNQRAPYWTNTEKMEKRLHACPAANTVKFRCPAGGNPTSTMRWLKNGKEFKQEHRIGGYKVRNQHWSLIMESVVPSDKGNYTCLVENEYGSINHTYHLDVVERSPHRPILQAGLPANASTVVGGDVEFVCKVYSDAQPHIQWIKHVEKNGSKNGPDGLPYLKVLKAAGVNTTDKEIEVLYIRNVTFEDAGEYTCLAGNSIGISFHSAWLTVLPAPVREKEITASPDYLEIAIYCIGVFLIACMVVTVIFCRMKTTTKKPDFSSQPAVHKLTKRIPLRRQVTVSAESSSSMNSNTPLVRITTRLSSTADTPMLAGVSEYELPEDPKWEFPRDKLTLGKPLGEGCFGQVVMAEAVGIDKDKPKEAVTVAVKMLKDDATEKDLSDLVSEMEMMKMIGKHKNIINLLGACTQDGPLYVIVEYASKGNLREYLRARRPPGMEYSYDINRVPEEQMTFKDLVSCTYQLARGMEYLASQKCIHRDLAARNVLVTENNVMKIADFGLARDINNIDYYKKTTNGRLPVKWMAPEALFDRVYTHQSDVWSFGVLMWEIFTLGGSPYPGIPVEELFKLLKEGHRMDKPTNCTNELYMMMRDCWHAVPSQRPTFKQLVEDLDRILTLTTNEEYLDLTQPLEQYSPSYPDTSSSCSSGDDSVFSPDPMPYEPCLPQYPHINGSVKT
T1 sequence (Q03142 17-799): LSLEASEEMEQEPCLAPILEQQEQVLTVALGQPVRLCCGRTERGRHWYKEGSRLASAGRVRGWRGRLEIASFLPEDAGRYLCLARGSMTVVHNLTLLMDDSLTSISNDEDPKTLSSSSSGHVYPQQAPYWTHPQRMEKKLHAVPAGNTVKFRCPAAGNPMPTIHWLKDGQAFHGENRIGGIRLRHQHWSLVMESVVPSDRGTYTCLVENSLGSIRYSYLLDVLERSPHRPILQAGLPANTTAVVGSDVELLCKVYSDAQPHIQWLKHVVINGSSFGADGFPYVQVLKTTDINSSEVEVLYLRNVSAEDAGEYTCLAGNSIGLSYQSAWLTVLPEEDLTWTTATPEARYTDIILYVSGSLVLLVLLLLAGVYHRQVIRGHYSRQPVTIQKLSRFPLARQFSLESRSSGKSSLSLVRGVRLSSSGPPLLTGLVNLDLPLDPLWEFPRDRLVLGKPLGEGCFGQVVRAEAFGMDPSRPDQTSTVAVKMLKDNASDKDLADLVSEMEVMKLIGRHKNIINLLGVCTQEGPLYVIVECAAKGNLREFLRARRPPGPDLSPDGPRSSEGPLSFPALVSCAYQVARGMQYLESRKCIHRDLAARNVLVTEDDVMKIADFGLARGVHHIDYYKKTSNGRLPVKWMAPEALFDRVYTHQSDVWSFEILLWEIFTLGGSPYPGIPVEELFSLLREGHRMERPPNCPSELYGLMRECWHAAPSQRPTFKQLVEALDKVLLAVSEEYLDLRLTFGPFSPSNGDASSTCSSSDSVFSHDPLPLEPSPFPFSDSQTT
T3 sequence (P11362 22-822): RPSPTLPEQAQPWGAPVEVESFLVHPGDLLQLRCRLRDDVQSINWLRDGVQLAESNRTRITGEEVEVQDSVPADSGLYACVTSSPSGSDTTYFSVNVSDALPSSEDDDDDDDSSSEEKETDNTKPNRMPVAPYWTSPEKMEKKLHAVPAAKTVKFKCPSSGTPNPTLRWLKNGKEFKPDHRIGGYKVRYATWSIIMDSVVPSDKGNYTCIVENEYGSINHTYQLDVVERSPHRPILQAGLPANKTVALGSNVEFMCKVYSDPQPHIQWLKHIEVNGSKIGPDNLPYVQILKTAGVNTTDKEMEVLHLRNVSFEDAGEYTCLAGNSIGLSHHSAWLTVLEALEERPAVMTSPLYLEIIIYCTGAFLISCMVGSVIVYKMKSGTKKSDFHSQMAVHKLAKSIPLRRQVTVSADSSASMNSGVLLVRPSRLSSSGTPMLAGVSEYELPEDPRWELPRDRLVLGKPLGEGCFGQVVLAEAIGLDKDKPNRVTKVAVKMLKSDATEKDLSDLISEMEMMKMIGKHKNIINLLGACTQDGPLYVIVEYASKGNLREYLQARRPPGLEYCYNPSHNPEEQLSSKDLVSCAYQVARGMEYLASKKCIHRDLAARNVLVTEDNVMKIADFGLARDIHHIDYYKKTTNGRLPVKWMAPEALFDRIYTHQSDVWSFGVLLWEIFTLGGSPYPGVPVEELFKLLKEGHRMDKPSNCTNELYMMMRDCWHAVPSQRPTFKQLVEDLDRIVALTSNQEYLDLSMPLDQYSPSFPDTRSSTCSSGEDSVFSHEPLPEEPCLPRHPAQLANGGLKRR

Compound | Inhibition specificity towards pEY phosphorylation at 10X IC50, Fgfr4 (Fgfr4) | Inhibition specificity towards pEY phosphorylation at 10X IC50, FGFR2 (FGFR2) | Inhibition specificity towards pEY phosphorylation at 10X IC50, FGFR1 (FGFR1) | IC50 [1] [µM]
COc1cc2ncnc(Nc3ccc(O)cc3)c2cc1OC [WHI-P131] | L (low inhibition (“L”=between 50–75% of the activity remaining)) | L (low inhibition (“L”=between 50–75% of the activity remaining)) | L (low inhibition (“L”=between 50–75% of the activity remaining)) | 7.8
Cc1ccc(-c2nn(C(C)(C)C)c3ncnc(N)c23)cc1 [PP1] | M (medium inhibition (“M”=between 25 to 50% of the activity remaining)) | – | L (low inhibition (“L”=between 50–75% of the activity remaining)) | 0.6
Cc1cc2ncc(-c3ccc(O)c(O)c3)nc2cc1C [AG-1433] | H (high inhibition (“H”=less than 25% of the activity remaining)) | H (high inhibition (“H”=less than 25% of the activity remaining)) | H (high inhibition (“H”=less than 25% of the activity remaining)) | 5
COc1c(C=O)c(O)cc2c1C(=O)c1ccccc1C2=O [Damnacanthal] | H (high inhibition (“H”=less than 25% of the activity remaining)) | H (high inhibition (“H”=less than 25% of the activity remaining)) | H (high inhibition (“H”=less than 25% of the activity remaining)) | 0.62
COC(=O)c1ccc(NCc2cc(O)ccc2O)cc1 [AG-957] | – | L (low inhibition (“L”=between 50–75% of the activity remaining)) | L (low inhibition (“L”=between 50–75% of the activity remaining)) | 0.75
CC(C)(C)c1cc(C=C(C#N)C#N)cc(Br)c1O [AG-1024] | M (medium inhibition (“M”=between 25 to 50% of the activity remaining)) | L (low inhibition (“L”=between 50–75% of the activity remaining)) | L (low inhibition (“L”=between 50–75% of the activity remaining)) | 18
COc1cc2ncnc(Nc3ccc(Cl)cc3F)c2cc1OC [VEGFR inhibitor] | L (low inhibition (“L”=between 50–75% of the activity remaining)) | L (low inhibition (“L”=between 50–75% of the activity remaining)) | – | 2
Erbstatin analog | – | – | – | 0.78
